Measurements from patent US12102648B2, “Orally-bioavailable nucleoside analogs” (priority 2021, dated 2024).
Like-named read-outs stand apart in the source and are kept apart here.

Experiment: in vitro
Format: in vitro ADME
Details: human
Procedure: The bidirectional permeability of compounds across the Caco-2 cell monolayer was assessed. The Caco-2 model is a widely used in vitro model for small intestinal absorption and potential for efflux.
Cell culture. Caco-2 cells were grown in DMEM supplemented with 10% fetal bovine serum (FBS), 1% Penicillin-Streptomycin and 1% MEM NEAA. The cells were incubated at 37° C., 5% CO2/95% air and saturated humidity. After reaching 80-90% confluency, the cells were gently detached with trypsin. Cells at passage 39 were seeded on the 24-well BD insert system at the density of 8×10^4 cells/cm^2 and cultured for 19 days with medium changed every 2-3 days. Measure the transepithelial electrical resistance (TEER) value of each well. The wells can be used only when their TEER values are greater than 600 Ohms/cm^2.
Transport assay. After removing the cell culture medium from the 24-well insert plate, the cells were rinsed with warm transport buffer. Appropriate dosing and receiving solutions were applied to the donor and receiver chambers to initiate the transport assay in apical to basolateral (A to B) or basolateral to apical (B to A) directions ([…] for apical and basolateral wells, respectively). Duplicate wells in each direction were used for the test compound and control compound. The plate was incubated in CO2 incubator at 37° C., with 5% CO2/95% air and saturated humidity without shaking. The sample after 10-minute incubation was used as the T0 sample, and the sample after 90-minute incubation was used as the T90 sample. To and T90 samples were collected from the donor and receiver side of each well at the designed timepoint, mixed with the transport buffer and acetonitrile/MeOH (1:1, v/v) and the internal standard for LC/MS/MS analysis. All samples were vortexed and centrifuged at 4000 rpm at 4° C. for 15 minutes, diluted with pure water and stored at 4° C. before bioanalysis by LC/MS/MS.
Sample analysis. The concentrations of test compounds and control compounds in Caco-2 cells were quantitatively determined by LC/MS/MS method after protein precipitation.
Calculations. The apparent permeability (Papp, cm/s), efflux ratio (ER) and recovery parameters were calculated for Caco-2 drug transport assay using the following equations:
[formula] [formula] where VR is the solution volume in the receiver chamber (0.4 mL on the apical side, 1.2 mL on the basolateral side); Area is the surface area for the insert membrane, i.e., 0.3 cm^2 for the area of the monolayer; Time is incubation time, expressed in seconds, i.e., 5400 s (90 min) for the current experiment; Co is the initial concentration of test compound or peak area ratio of control compounds in the donor chamber (μM); VD is the volume in the donor chambers (0.4 mL on the apical side, 1.2 mL on the basolateral side); CD and CR are the final concentrations of test compounds or peak area ratio of control compounds in donor and receiver chambers, respectively.
Compounds with Papp<1.0 are classified as low permeability, Papp between 1-10 are classified as medium permeability, and Papp≥10 are classified as high permeability. An efflux ratio (ER)>2 indicates the compounds are potential substrates for intestinal cell efflux transporters.

[1] = Caco-2 monolayer, apical to basolateral, 90-minute incubation, read-out: Papp, A-B
[2] = Caco-2 monolayer, basolateral to apical, 90-minute incubation, read-out: Papp, B-A
[3] = Caco-2 monolayer, ER>2 indicates potential efflux transporter substrate, read-out: ER (efflux ratio)

SMILES	Papp A→B at 90 min (Caco-2)	Papp B→A at 90 min (Caco-2)	efflux ratio at 90 min (Caco-2)	Papp A→B at 90 min [1]	Papp B→A at 90 min [2]	efflux ratio at 90 min [3]
CC(=O)OC[C@H]1O[C@@](C#N)(c2ccc3c(N)ncnn23)[C@H](O)[C@@H]1OCOC(=O)C(C)(C)C [Compound 56, {[(2R,3S,4R,5R)-2-[(acetyloxy)methyl]-5-{4-aminopyrrolo[2,1-f][1,2,4]triazin-7-yl}-5-cyano-4-hydroxyoxolan-3-yl]oxy}methyl 2,2-dimethylpropanoate]	4.7 ×10⁻⁶ cm/s	4 ×10⁻⁶ cm/s	0.84	–	–	–
CC(C)C(=O)OC[C@H]1O[C@@](C#N)(c2ccc3c(N)ncnn23)[C@H](O)[C@@H]1OC(=O)CC1CCCCC1 [Compound 58, ((2R,3S,4R,5R)-5-(4-aminopyrrolo[2,1-f][1,2,4]triazin-7-yl)-5-cyano-3-(2-cyclohexylacetoxy)-4-hydroxytetrahydrofuran-2-yl)methyl isobutyrate]	4.1 ×10⁻⁶ cm/s	2.1 ×10⁻⁶ cm/s	0.5	–	–	–
CC(C)C(=O)OC[C@H]1O[C@@](C#N)(c2ccc3c(N)ncnn23)[C@H](O)[C@@H]1OC(=O)Cc1ccccc1 [Compound 60, ((2R,3S,4R,5R)-5-(4-aminopyrrolo[2,1-f][1,2,4]triazin-7-yl)-5-cyano-4-hydroxy-3-(2-phenylacetoxy)tetrahydrofuran-2-yl)methyl isobutyrate]	–	–	–	2.8 ×10⁻⁶ cm/s	1.7 ×10⁻⁶ cm/s	0.58
CC(C)C(=O)OC[C@H]1O[C@@](C#N)(c2ccc3c(N)ncnn23)[C@H](O)[C@@H]1OC(=O)C(C)C [Compound 62, (2R,3S,4R,5R)-5-(4-aminopyrrolo[2,1-f][1,2,4]triazin-7-yl)-5-cyano-4-hydroxy-2-((isobutyryloxy)methyl)tetrahydrofuran-3-yl isobutyrate]	3 ×10⁻⁶ cm/s	2.4 ×10⁻⁶ cm/s	0.8	–	–	–
CC(C)C(=O)OC[C@H]1O[C@@](C#N)(c2ccc3c(N)ncnn23)[C@H](O)[C@@H]1OCOC(=O)C(C)(C)C [Compound 64, (((2R,3S,4R,5R)-5-(4-aminopyrrolo[2,1-f][1,2,4]triazin-7-yl)-5-cyano-4-hydroxy-2-((isobutyryloxy)methyl)tetrahydrofuran-3-yl)oxy)methyl pivalate]	5.9 ×10⁻⁶ cm/s	7.1 ×10⁻⁶ cm/s	1.2	–	–	–
CCC(=O)OC[C@H]1O[C@@](C#N)(c2ccc3c(N)ncnn23)[C@H](O)[C@@H]1OC(=O)CC1CCCCC1 [Compound 66, [(2R,3S,4R,5R)-5-{4-aminopyrrolo[2,1-f][1,2,4]triazin-7-yl}-5-cyano-3-[(2-cyclohexylacetyl)oxy]-4-hydroxyoxolan-2-yl]methyl propanoate]	2.7 ×10⁻⁶ cm/s	0.36 ×10⁻⁶ cm/s	0.13	–	–	–
CCC(=O)OC[C@H]1O[C@@](C#N)(c2ccc3c(N)ncnn23)[C@H](O)[C@@H]1OC(=O)[C@@H](N)C(C)C [Compound 67, (2R,3S,4R,5R)-5-{4-aminopyrrolo[2,1-f][1,2,4]triazin-7-yl}-5-cyano-4-hydroxy-2-[(propanoyloxy)methyl]oxolan-3-yl(2S)-2-amino-3-methylbutanoate]	0.3 ×10⁻⁶ cm/s	0.1 ×10⁻⁶ cm/s	0.33	–	–	–
CCC(=O)OC[C@H]1O[C@@](C#N)(c2ccc3c(N)ncnn23)[C@H](O)[C@@H]1OC(=O)Cc1ccccc1 [Compound 68, ((2R,3S,4R,5R)-5-(4-aminopyrrolo[2,1-f][1,2,4]triazin-7-yl)-5-cyano-4-hydroxy-3-(2-phenylacetoxy)tetrahydrofuran-2-yl)methyl propionate]	–	–	–	3.3 ×10⁻⁶ cm/s	9.3 ×10⁻⁶ cm/s	2.8
CCC(=O)OC[C@H]1O[C@@](C#N)(c2ccc3c(N)ncnn23)[C@H](O)[C@@H]1OC(=O)C(C)C [Compound 70, [(2R,3S,4R,5R)-5-{4-aminopyrrolo[2,1-f][1,2,4]triazin-7-yl}-5-cyano-4-hydroxy-3-[(2-methylpropanoyl)oxy]oxolan-2-yl]methyl propanoate]	1.8 ×10⁻⁶ cm/s	1.6 ×10⁻⁶ cm/s	0.82	–	–	–
CCC(=O)OC[C@H]1O[C@@](C#N)(c2ccc3c(N)ncnn23)[C@H](O)[C@@H]1OC(=O)CC [Compound 71]	–	–	–	0.94 ×10⁻⁶ cm/s	2.3 ×10⁻⁶ cm/s	2.4
CCC(=O)OC[C@H]1O[C@@](C#N)(c2ccc3c(N)ncnn23)[C@H](O)[C@@H]1OCOC(=O)C(C)(C)C [Compound 72, {[(2R,3S,4R,5R)-5-{4-aminopyrrolo[2,1-f][1,2,4]triazin-7-yl}-5-cyano-4-hydroxy-2-[(propanoyloxy)methyl]oxolan-3-yl]oxy}methyl 2,2-dimethylpropanoate]	5.8 ×10⁻⁶ cm/s	3.2 ×10⁻⁶ cm/s	0.55	–	–	–
CCCCCOC(=O)Nc1ncnn2c([C@]3(C#N)O[C@H](CO)[C@@H](O)[C@H]3O)ccc12 [Compound 81, pentyl (7-((2R,3R,4S,5R)-2-cyano-3,4-dihydroxy-5-(hydroxymethyl)tetrahydrofuran-2-yl)pyrrolo[2,1-f][1,2,4]triazin-4-yl)carbamate]	1 ×10⁻⁶ cm/s	14.7 ×10⁻⁶ cm/s	14	–	–	–
CC(C)[C@H](N)C(=O)Nc1ncnn2c([C@]3(C#N)O[C@H](CO)[C@@H](O)[C@H]3O)ccc12 [Compound 83, (2S)-2-amino-N-{7-[(2R,3R,4S,5R)-2-cyano-3,4-dihydroxy-5-(hydroxymethyl)oxolan-2-yl]pyrrolo[2,1-f][1,2,4]triazin-4-yl}-3-methylbutanamide]	0.07 ×10⁻⁶ cm/s	0.2 ×10⁻⁶ cm/s	3	–	–	–
N#C[C@@]1(c2ccc3c(NC(=O)c4ccccc4)ncnn23)O[C@H](CO)[C@@H](O)[C@H]1O [Compound 85, N-(7-((2R,3R,4S,5R)-2-cyano-3,4-dihydroxy-5-(hydroxymethyl)tetrahydrofuran-2-yl)pyrrolo[2,1-f][1,2,4]triazin-4-yl)benzamide]	0.37 ×10⁻⁶ cm/s	11 ×10⁻⁶ cm/s	31	–	–	–
CCCCCOC(=O)Nc1ncnn2c([C@]3(C#N)O[C@H](COC(=O)[C@@H](N)C(C)C)[C@@H](O)[C@H]3O)ccc12 [Compound 86, ((2R,3S,4R,5R)-5-cyano-3,4-dihydroxy-5-(4-(((pentyloxy)carbonyl)amino)pyrrolo[2,1-f][1,2,4]triazin-7-yl)tetrahydrofuran-2-yl)methyl L-valinate]	0.33 ×10⁻⁶ cm/s	11 ×10⁻⁶ cm/s	35	–	–	–
CCCCCOC(=O)Nc1ncnn2c([C@]3(C#N)O[C@H](COC(C)=O)[C@@H](O)[C@H]3O)ccc12 [Compound 87, ((2R,3S,4R,5R)-5-cyano-3,4-dihydroxy-5-(4-(((pentyloxy)carbonyl)amino)pyrrolo[2,1-f][1,2,4]triazin-7-yl)tetrahydrofuran-2-yl)methyl acetate]	5.5 ×10⁻⁶ cm/s	14 ×10⁻⁶ cm/s	2.7	–	–	–
CCCCCOC(=O)Nc1ncnn2c([C@]3(C#N)O[C@H](COC(=O)CC4CCCCC4)[C@@H](O)[C@H]3O)ccc12 [Compound 88, ((2R,3S,4R,5R)-5-cyano-3,4-dihydroxy-5-(4-(((pentyloxy)carbonyl)amino)pyrrolo[2,1-f][1,2,4]triazin-7-yl)tetrahydrofuran-2-yl)methyl 2-cyclohexylacetate]	2.1 ×10⁻⁶ cm/s	1.6 ×10⁻⁶ cm/s	0.78	–	–	–
